Measurements: US11639372B1, “Zinc-charged peptides for the treatment of cancer and alzheimer's disease” (priority 2021, dated 2023)
Numbered stars: 1 amine (or outer) side, 2 acyl side, 3 side chain; on linkers, the order of the positions; unused ones are H or OH. Bridge positions count the residues as written; N and C are the ends. Square brackets hold non-standard residues; d marks the D form. Ends that are not written are not given here. Peptide text beside a SMILES is read from it. I, II: the chains in the order shown. Actinocin(9to1) = Cc1c2oc3c(C)ccc(C(=O)[*:1])c3nc-2c(C(=O)[*:2])c(N)c1=O; NMeV = CN[C@H](C(=O)O)C(C)C; Sar = CNCC(=O)O

Experiments:
HT-29 colon cancer cells [1] = assay: apoptosis in HT-29 cells, combination with chemotherapy drugs; format: cell-based; details: for interaction of chemotherapy drug with the zinc-charged peptide: drug 6 μg per ml 12 hours, then zinc-charged 4H 4 μM for 6 hours
Description: To test this, HT-29 colon cancer cells were pre-incubated with various chemotherapy drugs at 6 μg per ml for 12 hours, then zinc-charged 4H at 4 μM was added for an additional 6 hours. Most chemotherapy drugs take up to 48 hours to see substantial apoptosis, and as such, the cells were pre-incubated with chemotherapy drugs first. The chemotherapy drugs tested included actinomycin (“A”), carmustine (“C”), docorubicin (“Dox”), genistin (“G”), 5-FU, and Tarceva.

[2] = water solubility of the peptides; format: physicochemical; details: uncharged peptide, last amino acid changed
[3] = tested on: various cancer cell lines; assay: apoptosis-inducing activity on cancer cell lines (earlier work); format: cell-based; details: in vitro cell culture
Description: Cow milk is known to contain numerous proteins and other beneficial compounds for humans.
Since alpha-lactalbumin is the major milk protein present in milk, this protein was first tested to determine if the bioactive peptides were derived from alpha-Lactalbumin. Purified alpha-lactalbumin was therefore treated with EDTA and zinc acetate.

[4] = absorption by gastrointestinal tract (earlier work); format: in vivo; details: before enzymatic digestion with papain
HT-29 cancer cells = assay: biochemical analysis of HT-29 cell lysate (lactate, ATP, G-6-P); format: cell-based
Description: To determine the mechanism of induction of apoptosis to HT-29 cancer cells by the zinc-charged peptides, a low concentration (1 μM) of zinc-charged 4H was incubated with HT-29 cancer cells, followed by biochemical analysis of the cell lysate of the HT-29 cancer cells.
Furthermore, the decreased lactate was associated with a lower ATP level and a lower Glucose-6-phosphate (G-6-P) level in HT-29 cells.

hexokinase II [5] = biological target: T1, hexokinase II (Homo sapiens, UniProt P52789); assay: in vitro hexokinase II assay; format: biochemical
T1 sequence (P52789 1-917): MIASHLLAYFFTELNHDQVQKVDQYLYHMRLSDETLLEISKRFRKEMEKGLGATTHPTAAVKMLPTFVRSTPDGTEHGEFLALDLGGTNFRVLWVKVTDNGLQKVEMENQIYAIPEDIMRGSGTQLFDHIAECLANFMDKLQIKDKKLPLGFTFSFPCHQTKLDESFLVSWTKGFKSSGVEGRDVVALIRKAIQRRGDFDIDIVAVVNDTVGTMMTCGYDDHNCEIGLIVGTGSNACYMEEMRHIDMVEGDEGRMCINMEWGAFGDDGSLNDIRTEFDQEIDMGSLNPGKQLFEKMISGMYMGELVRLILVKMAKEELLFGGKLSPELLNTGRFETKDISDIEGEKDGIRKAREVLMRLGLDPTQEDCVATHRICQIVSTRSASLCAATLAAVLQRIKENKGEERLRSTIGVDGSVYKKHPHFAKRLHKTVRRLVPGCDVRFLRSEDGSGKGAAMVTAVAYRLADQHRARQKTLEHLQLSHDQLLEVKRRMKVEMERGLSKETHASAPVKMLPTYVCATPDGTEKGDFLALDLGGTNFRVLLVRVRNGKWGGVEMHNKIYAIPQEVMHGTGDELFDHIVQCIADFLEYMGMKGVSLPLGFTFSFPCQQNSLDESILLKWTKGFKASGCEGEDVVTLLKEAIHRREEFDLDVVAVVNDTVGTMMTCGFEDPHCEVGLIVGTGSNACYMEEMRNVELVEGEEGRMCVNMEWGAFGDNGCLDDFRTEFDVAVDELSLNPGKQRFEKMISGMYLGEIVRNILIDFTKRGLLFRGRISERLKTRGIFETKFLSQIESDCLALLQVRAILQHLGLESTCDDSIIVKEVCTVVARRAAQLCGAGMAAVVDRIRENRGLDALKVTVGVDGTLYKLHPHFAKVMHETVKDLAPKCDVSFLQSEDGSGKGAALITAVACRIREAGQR
Description: To test confirm that the zinc-charged peptides inhibit hexokinase II resulting in the inhibition of glycolysis, an in vitro hexokinase II assay was performed. FIG. 7 depicts the results of the in vitro hexokinase II assay. In this test, it was observed that hexokinase II was inhibited by zinc-charged 4H in a dose-dependent manner. […] These findings confirm that the zinc-charged peptides inhibit glycolysis at the hexokinase II enzyme level.

HT-29 colon cancer cells [6] = assay: glycolysis (lactate) inhibition in cell lysate, HT-29; format: cell-based
[7] = tested on: normal colon cell line CCD18Co; assay: glycolysis (lactate) inhibition in cell lysate, CCD18Co; format: cell-based
Calu-1 lung cancer cells = assay: glycolysis (lactate) inhibition in cell lysate, Calu-1; format: cell-based
Description: (§1) The zinc-charged peptides ability to inhibit glycolysis in other cancer cell lines, such as lung cancer, compared to their normal counterparts was also tested.

normal WI38 lung cells = assay: glycolysis (lactate) inhibition in cell lysate, WI38; format: cell-based
Description: as §1

[8] = glycolysis and ATP in brain and muscle of normal mice fed zinc-charged 4H; format: in vivo; details: 0.5 mg per mouse per day, 5 days, oral
Description: To further study this observed phenomena in vivo, normal mice were fed with the zinc-charged 4H for five days, and the glycolysis of normal brain cells were studied. FIG. 9 depicts the results of this study. For this study, two groups of mice having four mice per group were compared, one being the control and the other being fed 0.5 mg of zinc-charged 4H per mouse per day for 5 days orally. After 5 days, brain and muscle tissue was collected, homogenized, and assayed for glycolysis rate.
In mice fed with 0.5 mg of zinc-charged 4H for 5 days, the brain glycolysis of these mice was enhanced by 44%.

hexokinase II [9] = biological target: T1, hexokinase II; assay: subcellular hexokinase II activity in HT-29 cells; format: cell-based; details: HT-29, 1 μM, 5 hours
Description: FIGS. 14-16 depicts the testing results validating that the zinc-charged peptides inhibit each of these three bioenergetic pathways. FIG. 14 depicts the subcellular hexokinase II activity in mitochondria, cytosol, and microsome to determine whether the zinc-charged peptides inhibit the hexokinase II activity in mitochondria. For this test, HT-29 cancer cells were incubated with zinc-charged 4H at 1 μM for 5 hours. After incubation, sub-cellular fractions including cytosol, microsome, and mitochondria were prepared and the hexokinase II activity on these sub-cellular fractions were tested.

With O=c1[nH]cc(F)c(=O)[nH]1 [5-FU] the “interaction of chemotherapy drug with the zinc-charged peptide” value (“interaction of chemotherapy drug” for short) (HT-29 colon cancer cells [1]) was “synergistic”.

With Cc1c2oc3c(C)ccc(C(=O)N[C@@H]4C(=O)N[C@H](C(C)C)C(=O)N5CCC[C@H]5C(=O)N(C)CC(=O)N(C)[C@@H](C(C)C)C(=O)O[C@@H]4C)c3nc-2c(C(=O)N[C@@H]2C(=O)N[C@H](C(C)C)C(=O)N3CCC[C@H]3C(=O)N(C)CC(=O)N(C)[C@@H](C(C)C)C(=O)O[C@@H]2C)c(N)c1=O [actinomycin] (I: T[dV]P[Sar][NMeV] / II: T[dV]P[Sar][NMeV]; ester I:1-I:C, II:1-II:C; linker I:N-II:N via Actinocin(9to1)) the “interaction of chemotherapy drug” value (HT-29 colon cancer cells [1]) was “synergistic”.

With O=NN(CCCl)C(=O)NCCCl [carmustine] the “interaction of chemotherapy drug” value (HT-29 colon cancer cells [1]) was “synergistic”.

For COc1cccc2c1C(=O)c1c(O)c3c(c(O)c1C2=O)C[C@@](O)(C(=O)CO)C[C@@H]3O[C@H]1C[C@H](N)[C@H](O)[C@H](C)O1 [doxorubicin], the “interaction of chemotherapy drug” value (HT-29 colon cancer cells [1]) was “synergistic”.

For O=c1c(-c2ccc(O)cc2)coc2cc(O[C@@H]3O[C@H](CO)[C@@H](O)[C@H](O)[C@H]3O)cc(O)c12 [genistin], the “interaction of chemotherapy drug” value (HT-29 colon cancer cells [1]) was “synergistic”.

In the case of “EYGLFQISNKK [4H3, E-Y-G-L-F-Q-I-S-N-K-K]”, the “water solubility compared with 4H” value [2] is reported as “more water-soluble”.

With “zinc-bound alpha-lactalbumin: purified alpha-lactalbumin treated with EDTA and zinc acetate” the “apoptosis-inducing activity on various cancer cell lines” value [3] was “contain apoptosis-inducing activity” and the “absorption by gastrointestinal tract” value [4] was “unable to be absorbed”.

For “zinc-charged 4H: peptide E-Y-G-L-F-Q-I-S-N-K-L (SEQ. ID NO. 1) charged with zinc ions by EDTA then zinc acetate treatment (EYGLFQISNKL; also: charged with zinc ions)”, the “percentage of apoptosis in HT-29 cells when added to chemotherapy drugs” value (HT-29 colon cancer cells [1]; zinc-charged 4H 4 μM, 6 hours after 12 hours drug pre-incubation) was “significantly increased”, the “lactate lower than control cells” value (HT-29 cancer cells; 1 μM, HT-29 cell lysate) was 81.4% and the “reduction of intracellular G-6-P level” value (HT-29 cancer cells; HT-29, after 6 hours of incubation) was 39.6%. For the same compound, the “hexokinase II inhibition” value (hexokinase II [5]; 5 μM) was 28.6%, the “hexokinase II inhibition” value (hexokinase II [5]; 10 μM) was 79.1% and the “hexokinase II inhibition” value (hexokinase II [5]; 20 μM) was 94.6%. The inhibition of glycolysis (HT-29 colon cancer cells [6]) was “up to 34.7%”, the inhibition of glycolysis [7] was 10.5% and the inhibition of glycolysis (Calu-1 lung cancer cells) was 11.1%. The inhibition of glycolysis (normal WI38 lung cells) was 0%, the “enhancement of brain glycolysis” value [8] was 44% and the “increase in brain ATP level” value [8] was 31.4%. For the same compound, the “increase of muscle glycolysis” value [8] was 15% and the “inhibition of mitochondria associated hexokinase II activity” value (hexokinase II [9]) was 53%.
